Values of other authors as cited in US4717569A, “Unit dosage form of sparingly soluble medicaments” (Sterling Drug Inc., priority 1984, dated 1988).

Key:
[1] = pH 6.0-7.0, intestinal juices
[2] = test system: pituitary gonadotrophins; conditions: in patients, background
[3] = in patients, background

| solubility at intestinal pH [1] | Compound | effect on pituitary gonadotrophins [2] | oestrogenic or progestational activity [3] |
| --- | --- | --- | --- |
| insoluble | OCCN(CCO)c1nc(N2CCCCC2)c2nc(N(CCO)CCO)nc(N3CCCCC3)c2n1 [dipyridamole] |  |  |
|  | C#C[C@]1(O)CC[C@H]2[C@@H]3CCC4=Cc5oncc5C[C@]4(C)[C@H]3CC[C@@]21C [Compound A, 17α-pregna-2,4-diene-20-yno[2,3-d]isoxazol-17-ol] | inhibits the synthesis or release of pituitary gonadotrophins | without exhibiting oestrogenic or progestational activity |
